Measured values as given in patent US9981940B2, “Aryl sulfide derivatives and aryl sulfoxide derivatives as acaricides and insecticides” (BAYER CROPSCIENCE AKTIENGESELLSCHAFT, priority 2013, dated 2018).

Test system: not listed separately
Test: log P by HPLC (OECD Guideline 117), method [a] acidic range
Format: physicochemical
Settings: HPLC, method [a] acidic range
Experimental: (§1) The log P values were determined analogously to OECD Guideline 117 (EC Directive 92/69/EEC) by HPLC (high-performance liquid chromatography) using reversed-phase columns (C 18), by the following methods:
[a] The LC-MS determination in the acidic range is effected at pH 2.7 with 0.1% aqueous formic acid and acetonitrile (contains 0.1% formic acid) as eluents; linear gradient from 10% acetonitrile to 95% acetonitrile.

| logP[a] | SMILES |
| --- | --- |
| 4.60 | Cc1ccc(-n2nc(OCC3CC3)n(C3CC3)c2=O)cc1SCC(F)(F)F [Example 135] |
| 4.35 | Cc1cc(F)c(-n2nc(OCC(C)(C)C)n(C)c2=O)cc1SCC(F)(F)F [Example 150] |
| 3.16 | Cc1cc(F)c(-n2nc(C(F)(F)F)n(N(C)C)c2=O)cc1[S+]([O-])CC(F)(F)F (centres unmarked) [Example 213] |
| 2.83 | Cc1cc(F)c(-n2nc(OCC(F)(F)F)n(C3CC3)c2=O)cc1[S+]([O-])CC(F)(F)F (centres unmarked) [Example 102] |
| 4.01 | COc1nn(-c2ccc(Br)c(SCC(F)(F)F)c2)c(=O)n1C1CC1 [Example 111] |
| 3.61 | Cc1cc(F)c(-n2nnn(CC(F)(F)F)c2=O)cc1SCC(F)(F)F [Example 304] |

Second part, the compound before the results:

| SMILES | logP[a] |
| --- | --- |
| Cc1cc(F)c(-n2nc(OCC(F)(F)F)n(C3CC3)c2=O)cc1SCC(F)(F)F [Example 103] | 3.80 |
| Cc1cc(F)c(-n2nc(-c3ccc(Cl)cc3F)n(C)c2=O)cc1SCC(F)(F)F [Example 40] | 4.06 |
| Cc1cc(F)c(N2CC(OCc3ccccc3)=CC2=O)cc1[S+]([O-])CC(F)(F)F (centres unmarked) [Example 323] | 2.87 |
| COc1nn(-c2cc(SCC(F)(F)F)c(C)cc2F)c(=O)n1C1CC1 [Example 105] | 3.16 |
| Cc1cc(F)c(-n2nnn(CC(F)(F)C(F)(F)F)c2=O)cc1SCC(F)(F)F [Example 444] | 4.09 |
| Cc1cc(F)c(-n2nc(-c3ccc(Cl)cc3F)n(C)c2=O)cc1[S+]([O-])CC(F)(F)F (centres unmarked) [Example 39] | 2.97 |
| COc1nn(-c2cc([S+]([O-])CC(F)(F)F)c(C)cc2F)c(=O)n1C1CC1 (centres unmarked) [Example 104] | 2.13 |
| CCC(C)Oc1nn(-c2ccc(C)c(SCC(F)(F)F)c2)c(=O)n1C1CC1 (centres unmarked) [Example 142] | 5.01 |
| Cc1cc(F)c(-n2nnn(CC(F)(F)F)c2=O)cc1[S+]([O-])CC(F)(F)F (racemic) [Example 305] | 2.57 |
| CC(CC(C)C)=Nn1c(C)nn(-c2cc(SCC(F)(F)F)c(C)cc2F)c1=O [Example 202] | 4.06 |

Test system: Boophilus microplus
Test: Boophilus microplus injection test (BOOPMI Inj)
Format: in vivo
Settings: application rate of 20 μg/animal, assessed after 7 days by laying of fertile eggs
Experimental: Use Examples Boophilus microplus Injection Test (BOOPMI Inj) • Solvent: dimethyl sulphoxide
To prepare an appropriate active ingredient formulation, 10 mg of active ingredient are mixed with 0.5 ml of solvent and the concentrate is diluted with solvent to the desired concentration.
1 μl of the active ingredient solution is injected into the abdomen of 5 engorged adult female cattle ticks (Boophilus microplus). The animals are transferred into dishes and kept in a climate-controlled room.
The efficacy is assessed after 7 days by laying of fertile eggs. Eggs which are not visibly fertile are stored in a climate-controlled cabinet until the larvae hatch after about 42 days.
An efficacy of 100% means that none of the ticks has laid any fertile eggs; 0% means that all the eggs are fertile.

| SMILES | efficacy [%] |
| --- | --- |
| Cc1cc(F)c(-n2nc(OCC(F)(F)F)n(C3CC3)c2=O)cc1SCC(F)(F)F [Example 103] | 100 |
| COc1nn(-c2cc(SCC(F)(F)F)c(C)cc2F)c(=O)n1C1CC1 [Example 105] | 100 |
| Cc1cc(F)c(-n2nc(OCC(F)(F)F)n(C3CC3)c2=O)cc1[S+]([O-])CC(F)(F)F (centres unmarked) [Example 102] | 100 |
| COc1nn(-c2cc([S+]([O-])CC(F)(F)F)c(C)cc2F)c(=O)n1C1CC1 (centres unmarked) [Example 104] | 100 |
| Cc1cc(F)c(-n2nnn(CC(F)(F)F)c2=O)cc1[S+]([O-])CC(F)(F)F (racemic) [Example 305] | 100 |

Test system: Meloidogyne incognita
Test: Meloidogyne incognita test (MELGIN)
Format: in vivo
Settings: application rate of 20 ppm; after 14 days, by formation of galls
Experimental: Meloidogyne Incognita Test (MELGIN)
• Solvent: 125.0 parts by weight of acetone
To produce an appropriate active ingredient formulation, 1 part by weight of active ingredient is mixed with the specified amounts of solvent and the concentrate is diluted to the desired concentration with water.
Vessels are filled with sand, active ingredient solution, an egg/larvae suspension of the southern root-knot nematode (Meloidogyne incognita) and lettuce seeds. The lettuce seeds germinate and the plants develop. The galls develop on the roots
After 14 days, the nematicidal efficacy in % is determined by the formation of galls. 100% means that no galls have been found; 0% means that the number of galls on the treated plants corresponds to the untreated control.

| SMILES | nematicidal efficacy [%] |
| --- | --- |
| Cc1cc(F)c(-n2nc(OCC(F)(F)F)n(C3CC3)c2=O)cc1SCC(F)(F)F [Example 103] | 100 |
| Cc1cc(F)c(-n2nc(-c3ccc(Cl)cc3F)n(C)c2=O)cc1SCC(F)(F)F [Example 40] | 100 |
| Cc1ccc(-n2nc(OCC3CC3)n(C3CC3)c2=O)cc1SCC(F)(F)F [Example 135] | 90 |
| Cc1cc(F)c(N2CC(OCc3ccccc3)=CC2=O)cc1[S+]([O-])CC(F)(F)F (centres unmarked) [Example 323] | 90 |
| Cc1cc(F)c(-n2nc(OCC(C)(C)C)n(C)c2=O)cc1SCC(F)(F)F [Example 150] | 90 |
| Cc1cc(F)c(-n2nc(C(F)(F)F)n(N(C)C)c2=O)cc1[S+]([O-])CC(F)(F)F (centres unmarked) [Example 213] | 90 |
| COc1nn(-c2cc(SCC(F)(F)F)c(C)cc2F)c(=O)n1C1CC1 [Example 105] | 90 |
| Cc1cc(F)c(-n2nnn(CC(F)(F)C(F)(F)F)c2=O)cc1SCC(F)(F)F [Example 444] | 90 |
| Cc1cc(F)c(-n2nc(OCC(F)(F)F)n(C3CC3)c2=O)cc1[S+]([O-])CC(F)(F)F (centres unmarked) [Example 102] | 100 |
| Cc1cc(F)c(-n2nc(-c3ccc(Cl)cc3F)n(C)c2=O)cc1[S+]([O-])CC(F)(F)F (centres unmarked) [Example 39] | 90 |
| COc1nn(-c2cc([S+]([O-])CC(F)(F)F)c(C)cc2F)c(=O)n1C1CC1 (centres unmarked) [Example 104] | 90 |
| COc1nn(-c2ccc(Br)c(SCC(F)(F)F)c2)c(=O)n1C1CC1 [Example 111] | 100 |
| Cc1cc(F)c(-n2nnn(CC(F)(F)F)c2=O)cc1SCC(F)(F)F [Example 304] | 100 |
| CCC(C)Oc1nn(-c2ccc(C)c(SCC(F)(F)F)c2)c(=O)n1C1CC1 (centres unmarked) [Example 142] | 90 |
| Cc1cc(F)c(-n2nnn(CC(F)(F)F)c2=O)cc1[S+]([O-])CC(F)(F)F (racemic) [Example 305] | 100 |
| CC(CC(C)C)=Nn1c(C)nn(-c2cc(SCC(F)(F)F)c(C)cc2F)c1=O [Example 202] | 100 |

Test system: not listed separately
Test: log P by HPLC (OECD Guideline 117), method [b] neutral range
Format: physicochemical
Settings: HPLC, method [b] neutral range
Experimental: as §1
[b] The LC-MS determination in the neutral range is effected at pH 7.8 with 0.001 molar aqueous ammonium hydrogencarbonate solution and acetonitrile as eluents; linear gradient from 10% acetonitrile to 95% acetonitrile.

| logP[b] | SMILES |
| --- | --- |
| 4.56 | Cc1ccc(-n2nc(OCC3CC3)n(C3CC3)c2=O)cc1SCC(F)(F)F [Example 135] |
| 4.29 | Cc1cc(F)c(-n2nc(OCC(C)(C)C)n(C)c2=O)cc1SCC(F)(F)F [Example 150] |
| 3.09 | Cc1cc(F)c(-n2nc(C(F)(F)F)n(N(C)C)c2=O)cc1[S+]([O-])CC(F)(F)F (centres unmarked) [Example 213] |
| 2.77 | Cc1cc(F)c(-n2nc(OCC(F)(F)F)n(C3CC3)c2=O)cc1[S+]([O-])CC(F)(F)F (centres unmarked) [Example 102] |
| 3.93 | COc1nn(-c2ccc(Br)c(SCC(F)(F)F)c2)c(=O)n1C1CC1 [Example 111] |
| 3.48 | Cc1cc(F)c(-n2nnn(CC(F)(F)F)c2=O)cc1SCC(F)(F)F [Example 304] |

More lines, now with the values behind:

| SMILES | logP[b] |
| --- | --- |
| Cc1cc(F)c(-n2nc(OCC(F)(F)F)n(C3CC3)c2=O)cc1SCC(F)(F)F [Example 103] | 3.72 |
| Cc1cc(F)c(-n2nc(-c3ccc(Cl)cc3F)n(C)c2=O)cc1SCC(F)(F)F [Example 40] | 3.96 |
| Cc1cc(F)c(N2CC(OCc3ccccc3)=CC2=O)cc1[S+]([O-])CC(F)(F)F (centres unmarked) [Example 323] | 2.81 |
| COc1nn(-c2cc(SCC(F)(F)F)c(C)cc2F)c(=O)n1C1CC1 [Example 105] | 3.11 |
| Cc1cc(F)c(-n2nnn(CC(F)(F)C(F)(F)F)c2=O)cc1SCC(F)(F)F [Example 444] | 4.04 |
| Cc1cc(F)c(-n2nc(-c3ccc(Cl)cc3F)n(C)c2=O)cc1[S+]([O-])CC(F)(F)F (centres unmarked) [Example 39] | 2.91 |
| COc1nn(-c2cc([S+]([O-])CC(F)(F)F)c(C)cc2F)c(=O)n1C1CC1 (centres unmarked) [Example 104] | 2.08 |
| CCC(C)Oc1nn(-c2ccc(C)c(SCC(F)(F)F)c2)c(=O)n1C1CC1 (centres unmarked) [Example 142] | 4.96 |
| Cc1cc(F)c(-n2nnn(CC(F)(F)F)c2=O)cc1[S+]([O-])CC(F)(F)F (racemic) [Example 305] | 2.51 |
| CC(CC(C)C)=Nn1c(C)nn(-c2cc(SCC(F)(F)F)c(C)cc2F)c1=O [Example 202] | 3.98 |

Test system: Tetranychus urticae
Test: Tetranychus urticae spray test, OP-resistant (TETRUR)
Format: in vivo
Settings: application rate of 500 g/ha; after 6 days
Method in brief: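 Mortality as % efficacy (0% = no mites killed) read 6 days after spraying. Formulation: active ingredient in acetone/dimethylformamide plus emulsifier, diluted with emulsifier-containing water, applied to Phaseolus vulgaris leaf discs carrying every life stage of OP-resistant spider mites.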

| SMILES | efficacy [%] |
| --- | --- |
| Cc1cc(F)c(-n2nc(OCC(F)(F)F)n(C3CC3)c2=O)cc1SCC(F)(F)F [Example 103] | 100 |
| Cc1cc(F)c(-n2nc(-c3ccc(Cl)cc3F)n(C)c2=O)cc1SCC(F)(F)F [Example 40] | 100 |
| Cc1cc(F)c(-n2nc(OCC(C)(C)C)n(C)c2=O)cc1SCC(F)(F)F [Example 150] | 100 |
| Cc1cc(F)c(-n2nc(C(F)(F)F)n(N(C)C)c2=O)cc1[S+]([O-])CC(F)(F)F (centres unmarked) [Example 213] | 90 |
| COc1nn(-c2cc(SCC(F)(F)F)c(C)cc2F)c(=O)n1C1CC1 [Example 105] | 100 |
| Cc1cc(F)c(-n2nnn(CC(F)(F)C(F)(F)F)c2=O)cc1SCC(F)(F)F [Example 444] | 100 |
| Cc1cc(F)c(-n2nc(OCC(F)(F)F)n(C3CC3)c2=O)cc1[S+]([O-])CC(F)(F)F (centres unmarked) [Example 102] | 100 |
| Cc1cc(F)c(-n2nc(-c3ccc(Cl)cc3F)n(C)c2=O)cc1[S+]([O-])CC(F)(F)F (centres unmarked) [Example 39] | 90 |
| COc1nn(-c2cc([S+]([O-])CC(F)(F)F)c(C)cc2F)c(=O)n1C1CC1 (centres unmarked) [Example 104] | 100 |
| Cc1cc(F)c(-n2nnn(CC(F)(F)F)c2=O)cc1SCC(F)(F)F [Example 304] | 100 |
| Cc1cc(F)c(-n2nnn(CC(F)(F)F)c2=O)cc1[S+]([O-])CC(F)(F)F (racemic) [Example 305] | 100 |
| CC(CC(C)C)=Nn1c(C)nn(-c2cc(SCC(F)(F)F)c(C)cc2F)c1=O [Example 202] | 100 |
